Where two headings read alike, the source gives them in different places.
Tested on: MIAPACA2 cells
Assay: Proliferation assay (CellTiter-Glo, 72 h) in MIAPACA2 cells
Format: cell-based, human
Settings: for IC90: MIAPACA2, 72 h; for potency relative to non-fluorinated analog: IC90 without copper, analog of same 4′ amine series (HCT1, HCT6 or HCT11); for increase in potency under copper supplementation versus non-copper-supplemented IC90: 20 μM CuCl2
Description: IC90 values against MIAPACA2 cells was first determined in normal cell culture conditions (DMEM media and 10% FBS). Compounds were separated into three series (4′ primary amines, 4′ secondary amines, 4′ tertiary amines) to reflect the relative degrees of 4′ amine methylation. […] (Refs 41, 42).
HCT compounds are known to be copper chelators. (Ref. 32). To test whether the compounds described herein were similarly potentiated, the IC90 (+Cu IC90) values were determined against MIAPACA2 cells in media supplemented with physiologically relevant levels of copper (DMEM media+10% FBS+20 μM CuCl2). MIAPACA2 cells were treated with the indicated HCT±20 μM Cu(II) for 72 hours, then cell viability was measured with CellTiter-Glo to determine IC90 values.
(§1) Proliferation assay: Cells were plated in 384-well plates (500 cells/well for adherent cell lines in 30 μl volume). Drugs were serially diluted to the desired concentrations and an equivalent volume of DMSO was added to vehicle control. Following 72 h incubation, ATP content was measured using CellTiter-Glo reagent according to manufacturer's instructions (Promega, CellTiter-Glo Luminescent Cell Viability Assay), and analyzed by SpectraMax luminometer (Molecular Devices). IC50 and IC90 values, concentrations required to inhibit proliferation by 50% and 90% respectively compared to DMSO treated cells, were calculated using Prism 6.0 h (Graphpad Software).
as §1, with “assay.” for “assay:”, “Software). The 430-member protein kinase inhibitor library used for the chemical genomics screen was purchased from Selleckchem, Catalog No. L1200.” for “Software).”

[1] = Homo sapiens, MIA PaCa-2, 72 h, DMEM + 10% FBS, no copper supplementation, read-out: IC90
[2] = DMEM + 10% FBS + 20 μM CuCl2, read-out: +Cu(II) IC90

Row | Structure (SMILES) | IC90 [1] | potency relative to non-fluorinated analog | IC90 [2] | increase in potency under copper supplementation versus non-copper-supplemented IC90 | effect on proliferation (20 μM Cu(II) alone) | increase in potency under copper supplementation versus non-copper-supplemented IC90 (listed as 6) | increase in potency under copper supplementation versus non-copper-supplemented IC90 (listed as 11)
1 | CN(C)C(=S)N/N=C/c1ncc(F)c2ccccc12 (mixture of isomers) [HCT12, (E)-2-((4-Fluoroisoquinolin-1-yl)methylene)-N,N-dimethylhydrazine-1-carbothioamide and (Z)-2-((4-Fluoroisoquinolin-1-yl)methylene)-N,N-dimethylhydrazine-1-carbothioamide] | 0.274 µM | roughly 110 fold | 0.0266 µM | – | – | – | –
2 | CNC(=S)N/N=C/c1nccc2c(NC)cccc12 [HCT9, E)-N-Methyl-2-((5-(methylamino)isoquinolin-1-yl)methylene)hydrazine-1-carbothioamide and (Z)—N-Methyl-2-((5-(methylamino)isoquinolin-1-yl)methylene)hydrazine-1-carbothioamide] | 4.24 µM | – | 0.607 µM | significantly increased | – | – | –
3 | CNC(=S)N/N=C/c1nccc2c(N)cccc12 (mixture of isomers) [HCT10, 2-((5-Aminoisoquinolin-1-yl)methylene)-N-methylhydrazine-1-carbothioamide and (Z)-2-((5-Aminoisoquinolin-1-yl)methylene)-N-methylhydrazine-1-carbothioamide] | 11.2 µM | – | 7.87 µM | – | – | – | –
4 | NC(=S)N/N=C/c1nccc2c(N)cccc12 [HCT5, (E)-2-((5-Aminoisoquinolin-1-yl)methylene)hydrazine-1-carbothioamide, reference compound] | 40.5 µM | – | 71.1 µM | attenuated | – | – | –
5 | CNc1cccc2c(/C=N/NC(N)=S)nccc12 [HCT4, (E)-2-((5-(Methylamino)isoquinolin-1-yl)methylene)hydrazine-1-carbothioamide, reference compound] | 11.5 µM | – | 5.33 µM | – | – | – | –
6 | NC(=S)N/N=C/c1nccc2cc(F)ccc12 [HCT3, (E)-2-((6-Fluoroisoquinolin-1-yl)methylene)hydrazine-1-carbothioamide] | 5.44 µM | 3 fold | 2.04 µM | – | – | – | –
7 | [Cl][Cu][Cl] [Cu(II), CuCl2] | – | – | – | – | did not affect proliferation at all | – | –
8 | CNC(=S)N/N=C/c1nccc2ccccc12 [HCT6, (E)-2-(isoquinolin-1-ylmethylene)-N-methylhydrazine-1-carbothioamide, reference compound] | 18.7 µM | – | 0.331 µM | 60 fold | – | significantly increased | –
9 | NC(=S)N/N=C/c1ncc(F)c2ccccc12 [HCT2, (E)-2-((4-Fluoroisoquinolin-1-yl)methylene)hydrazine-1-carbothioamide] | 24.6 µM | did not show an increase in potency | 2.06 µM | – | – | – | –
10 | CNC(=S)N/N=C/c1ncc(F)c2ccccc12 [HCT7, (E)-2-((4-Fluoroisoquinolin-1-yl)methylene)-N-methylhydrazine-1-carbothioamide] | 2.08 µM | significantly more potent | 0.114 µM | – | – | – | –
11 | CNc1cccc2c(/C=N/NC(=S)N(C)C)ncc(F)c12 (mixture of isomers) [HCT15, (E)-2-((4-Fluoro-5-(methylamino)isoquinolin-1-yl)methylene)-N,N-dimethylhydrazine-1-carbothioamide and (Z)-2-((4-Fluoro-5-(methylamino)isoquinolin-1-yl)methylene)-N,N-dimethylhydrazine-1-carbothioamide] | 0.327 µM | – | 0.0423 µM | – | – | – | –
12 | CNC(=S)N/N=C/c1nccc2cc(F)ccc12 [HCT8, (E)-2-((6-Fluoroisoquinolin-1-yl)methylene)-N-methylhydrazine-1-carbothioamide] | 4.08 µM | significantly more potent | 0.233 µM | – | – | – | –
13 | NC(=S)N/N=C/c1nccc2ccccc12 [HCT1, (E)-2-(isoquinolin-1-ylmethylene)hydrazine-1-carbothioamide, reference compound] | 18.1 µM | – | 2.21 µM | 10 fold | – | – | –
14 | CNc1c(F)ccc2c(/C=N/NC(=S)N(C)C)nccc12 (mixture of isomers) [HCT14, (E)-2-((6-Fluoro-5-(methylamino)isoquinolin-1-yl)methylene)-N,N-dimethylhydrazine-1-carbothioamide and (Z)-2-((6-Fluoro-5-(methylamino)isoquinolin-1-yl)methylene)-N,N-dimethylhydrazine-1-carbothioamide] | 0.272 µM | – | 0.0384 µM | – | – | – | –
15 | CN(C)C(=S)N/N=C/c1nccc2ccccc12 (mixture of isomers) [HCT11, (E)-2-(Isoquinolin-1-ylmethylene)-N,N-dimethylhydrazine-1-carbothioamide and (Z)-2-(Isoquinolin-1-ylmethylene)-N,N-dimethylhydrazine-1-carbothioamide] | 29.6 µM | – | 0.0737 µM | 400 fold | – | – | significantly increased

— US12528774B2, “Thiosemicarbazone compounds and uses thereof” (The Regents of the University of California, priority 2019, dated 2026)
